Assay results from the NIST ThermoML archive (doi:10.1021/je060333x).
± gives the expanded uncertainty stated by the source.

Assay: molar enthalpy of transition or fusion
Settings: 352 K; Crystal; DSC

molar enthalpy of transition or fusion: 12.2 ± 0.454 kcal/mol
SMILES: OCCCCCCCCCCCCO [1,12-dihydroxydodecane]
